Source: the NIST ThermoML archive (doi:10.1021/je300938w)

Columns and labels:
[1] = wn = mass fraction of the nth substance listed; conditions: 101 kPa, Liquid; for viscosity: Concentric cylinders viscometry; for mass density: Vibrating tube method
[2] = refractive index (Na D-line) (dimensionless); wn = mass fraction of the nth substance listed; conditions: 101 kPa, Liquid, Standard Abbe refractometry

CC(O)CN(CC(C)O)CC(C)O (stereo not given) [triisopropanolamine] + O
Conditions | mass density, [1] [kg/m3] | refractive index, [2] | viscosity, [1] [mPa·s]
298.15 K, w1 = 0.05 | 1000.88 | 1.34069 | 1.083
298.15 K, w1 = 0.1 | 1004.3 | 1.34815 | 1.36
298.15 K, w1 = 0.15 | 1007.92 | 1.35565 | 1.71
298.15 K, w1 = 0.2 | 1011.66 | 1.36317 | 2.173
298.15 K, w1 = 0.25 | 1015.04 | 1.37063 | 2.857
303.15 K, w1 = 0.05 | 999.387 | 1.34001 | 0.9842
303.15 K, w1 = 0.1 | 1002.67 | 1.34737 | 1.198
303.15 K, w1 = 0.15 | 1006.1 | 1.35487 | 1.486
303.15 K, w1 = 0.2 | 1009.61 | 1.36227 | 1.859
303.15 K, w1 = 0.25 | 1012.73 | 1.36979 | 2.396
308.15 K, w1 = 0.05 | 997.679 | 1.33922 | 0.8883
308.15 K, w1 = 0.1 | 1000.83 | 1.34656 | 1.068
308.15 K, w1 = 0.15 | 1004.08 | 1.35393 | 1.309
308.15 K, w1 = 0.2 | 1007.37 | 1.36133 | 1.612
308.15 K, w1 = 0.25 | 1010.26 | 1.36869 | 2.051
313.15 K, w1 = 0.05 | 995.768 | 1.33853 | 0.8034
313.15 K, w1 = 0.1 | 998.785 | 1.34572 | 0.9574
313.15 K, w1 = 0.15 | 1001.88 | 1.35309 | 1.159
313.15 K, w1 = 0.2 | 1004.97 | 1.36039 | 1.418
313.15 K, w1 = 0.25 | 1007.64 | 1.36764 | 1.774
318.15 K, w1 = 0.05 | 993.671 | 1.33769 | 0.7315
318.15 K, w1 = 0.1 | 996.561 | 1.34484 | 0.8658
318.15 K, w1 = 0.15 | 999.498 | 1.35209 | 1.038
318.15 K, w1 = 0.2 | 1002.41 | 1.35933 | 1.257
318.15 K, w1 = 0.25 | 1004.88 | 1.36653 | 1.553
323.15 K, w1 = 0.05 | 991.401 | 1.3368 | 0.6696
323.15 K, w1 = 0.1 | 994.168 | 1.34387 | 0.7874
323.15 K, w1 = 0.15 | 996.957 | 1.35104 | 0.9361
323.15 K, w1 = 0.2 | 999.698 | 1.35818 | 1.125
323.15 K, w1 = 0.25 | 1002 | 1.36532 | 1.373
328.15 K, w1 = 0.05 | 988.96 | 1.33565 | 0.6164
328.15 K, w1 = 0.1 | 991.613 | 1.34287 | 0.7208
328.15 K, w1 = 0.15 | 994.263 | 1.34999 | 0.8494
328.15 K, w1 = 0.2 | 996.847 | 1.35718 | 1.013
328.15 K, w1 = 0.25 | 998.98 | 1.36417 | 1.224
333.15 K, w1 = 0.05 | 986.362 | 1.33481 | 0.5719
333.15 K, w1 = 0.1 | 988.905 | 1.34176 | 0.6624
333.15 K, w1 = 0.15 | 991.422 | 1.34883 | 0.7754
333.15 K, w1 = 0.2 | 993.857 | 1.35587 | 0.9186
333.15 K, w1 = 0.25 | 995.844 | 1.36291 | 1.104
338.15 K, w1 = 0.05 | 983.585 | 1.3337 | 0.535
338.15 K, w1 = 0.1 | 985.961 | 1.34063 | 0.6134
338.15 K, w1 = 0.15 | 988.426 | 1.34762 | 0.7114
338.15 K, w1 = 0.2 | 990.739 | 1.35461 | 0.8381
338.15 K, w1 = 0.25 | 992.589 | 1.36154 | 0.9991
343.15 K, w1 = 0.05 | 980.297 | 1.33265 | 0.5064
343.15 K, w1 = 0.1 | 982.83 | 1.33943 | 0.57
343.15 K, w1 = 0.15 | 985.312 | 1.34641 | 0.6596
343.15 K, w1 = 0.2 | 987.395 | 1.35319 | 0.7694
343.15 K, w1 = 0.25 | 989.222 | 1.36012 | 0.9113
